Experimental data published in a melting point compilation (Tetko et al.; mined from patent text by program, amines drawn as free bases though some values may be those of a salt).

Compound	melting point [°C]
CNc1nc(-c2cc3cccc(N(C)S(=O)(=O)c4cccs4)c3[nH]2)cs1	162 to 163
CCOC(=O)c1sc2nc(C)c(CC)c(=O)n2c1C	122 to 124
COC(=O)C1=C(C)Nc2nc(N3CCOCC3)nc(N3CCOCC3)c2C1c1ccc([N+](=O)[O-])cc1 (centres undefined)	236
COC(=O)/C=C/c1ccc(-c2nc3c(=O)n(CC4CCCCC4)c(=O)n(CC4CCCCC4)c3[nH]2)cc1	> 270
C/C(O)=C(\C#N)C(=O)Sc1ccccc1	106 to 108
COc1cc(NC2CCCCC2)c2ccccc2c1OC(C)=O	134 to 136
Cc1cc(C)nc(C(=O)n2cc(CC(=O)O)c3ccc(Cl)cc32)c1	219 to 220
CN(C)c1ccc(NC(=O)c2cc3cc([Si](C)(C)C)ccc3n2Cc2cccc(F)c2)cn1	204 to 205
O=C1CC(c2ccccc2)c2ccccc2CN1 (centres undefined)	180 to 181
CC(C)(C)OC(=O)Nc1cccc(C(=O)NCC(=O)OCc2ccccc2)c1	171 to 173
COC(=O)c1ccc(C#C[Si](C)(C)C)cn1	45
O=C(OC1CCN(Cc2ccccc2)CC1)c1ccc(Br)cc1	71 to 72
CCOC(=O)Cn1c2c([nH]c(=O)c1=O)CCC1=C2C=C([N+](=O)[O-])CC1	217 to 219
Cc1cnn(-c2ccc(C(=O)N3Cc4cccn4Cc4ccccc43)c(Cl)n2)c1	155 to 156
CC(=O)SCCC(=O)CCC(=O)O	72 to 74
CC1(C)CCC(C)(C)c2cc(Oc3ccc(C=O)cc3)ccc21	75 to 76
CNS(=O)(=O)c1cc(C(=O)O)cc(N)c1Oc1ccccc1	283
Cc1cc(NC2=NCCN2)n(-c2ccc(F)cc2)n1	213 to 215
O=C1CCC(CCN2CCN(c3ccccn3)CC2)CC1	104 to 106
O=C(NCc1ccccc1)c1ccnc(NC(=O)c2cccc(C(F)(F)F)c2)c1	87 to 88
Oc1ccc(CCCCn2ccnc2)cc1	124 to 125
CC(C)(C)OC(=O)N1CCC(n2nc(-c3c(-c4ccccc4)nn4ccccc34)ccc2=O)CC1	152 to 153
CCCn1c(=O)c2[nH]c(/C=C/c3ccc(O)c(OC)c3)nc2n(CCC)c1=O	243 to 245
CC(C)CCOc1c(-c2ccc(S(C)(=O)=O)cc2)cnn(-c2ccc(F)c(F)c2)c1=O	121 to 123
COC(=O)CCCc1cc2nc(Cl)ccc2n1S(=O)(=O)c1ccc(F)c(F)c1	96 to 98
NCCNc1ccc2ccccc2n1	124 to 125

Compound	melting point [°C]
COC(=O)c1sc2c(C(F)(F)F)cccc2c1C1CCN(C(C)=O)CC1	155
O=c1[nH]c2cc(Cl)c(Cl)cc2n1CCCN1CCN(C(c2ccccc2)c2ccccc2)CC1	214
Cc1c(CC(=O)OCCCCO)cc(-c2ccc(S(C)(=O)=O)cc2)n1-c1ccc(F)cc1	149 to 151
CSC1=NC(=O)/C(=C/c2ccccc2Nc2c(Cl)ccc(C)c2Cl)S1	233 to 236
CNC(=S)C1(c2cccc(C)n2)CCCO1 (centres undefined)	151
O=[N+]([O-])c1cnccc1NCc1ccc(CO)o1	135
CCCn1c(=O)c2[nH]c(/C=C/c3cccc([N+](=O)[O-])c3)nc2n(CCC)c1=O	256 to 257
CC1(C)Oc2cc(N)c([N+](=O)[O-])cc2O1	128 to 129
COc1cc(CCl)c(OCCC(C)CCCC(C)C)cc1CCl (centres undefined)	65
O=C(CBr)c1ccc(OCc2ccccc2)c(CCOCc2ccccc2)c1	53 to 56
CCOC(=O)c1cn(C2COC2)c2c(C)c(F)c(F)cc2c1=O	157 to 165
N#Cc1cccc(C2=Nc3ccc(-c4cccc(F)c4)cc3NC(=O)C2)c1	232 to 235
CCc1cc(CO)nn1-c1ccc([N+](=O)[O-])cc1	151 to 152
CN(C)C=Nc1nc(=O)n(C(=O)OCC(C)(C)C)cc1F	162 to 164
CS(=O)(=O)Nc1ccc([C@@H]2CCC(=O)O2)cc1	101 to 102
O=c1oc(CCc2ccccc2)cc(O)c1SCc1ccccc1	164 to 166
C=C(C)C(=O)OCCCCc1ccc(OC(F)(F)c2c(F)cc(-c3ccc(CCCCOC(=O)C(=C)C)cc3F)cc2F)cc1	128
O=C(O)CCc1oc(NC2CCCCC2)nc1-c1ccc(Cl)cc1	237 to 238
Cc1cc(Cl)ccc1-c1cccc2c1OC(CN)CN2C (centres undefined)	109 to 112
C=CCc1c([N+](=O)[O-])ccc2c1OC(CO)CO2 (centres undefined)	67
CCc1c(-c2ccc(OCc3ccccc3)cc2)c2cc(C(=O)OC)c3cccc1n32	129 to 131
CCOc1cc(CO)ccc1OCc1nc(-c2ccco2)oc1C	141 to 142
Cc1sc(N)c(C(=O)c2cccs2)c1C	117 to 118
C=C1CCCCCCCSC[C@@H](C(=O)OCC)NC1=O	146 to 147
O=C(c1ccc(Cl)cc1)c1ccc(CSC(F)F)cc1	34 to 35
OCCOCC(O)c1ccc2ccccc2c1 (centres undefined)	105 to 106

Compound	melting point [°C]
NC(=O)C1(c2cccc(Br)c2)CCOCC1	245 to 247
COc1ccc2c3c(c4cc(OC)c(OC)cc4c2c1)C[C@H](CO)N(C(=O)OC(C)(C)C)C3	105 to 107
Clc1cc(CBr)c2noc(-c3ccccc3)c2c1	142 to 144
CC(C)C1Cc2cc(OCC(=O)O)c(Cl)c(Cl)c2C1=O (centres undefined)	161 to 164
COc1ccc(-c2cc3ccc(OC)cc3c(=S)[nH]2)cc1	188 to 190
COCCOc1ccc(CC(OC)C(=O)O)c(Oc2ncc(C(F)(F)F)cc2Cl)c1 (centres undefined)	93 to 96
CC(Br)=C(c1ccccc1)c1ccccc1	46 to 47
CCC(=C(c1ccc(O)cc1)c1ccc(O)cc1)c1cccc(-c2c(C)noc2C)c1	173 to 174
O=C(O)c1ccc(-c2cc(-c3ccc(Cl)cc3)on2)cc1	> 300
N#CC1=NC(Cl)(Cl)N=C1Cl	114 to 115
Cc1ccc2c(c1)C=C(C(=O)O)C(C(F)(F)F)S2 (centres undefined)	181 to 184
CS(=O)(=O)c1ccc(-c2cnn(CC(F)(F)F)c(=O)c2Nc2cccc(F)c2)cc1	156 to 158
CC(=O)N=C(OC(C)=O)N1CCSC1c1ccccc1OCCN1CCN(c2ccccc2)CC1 (centres undefined)	120 to 124
CCN1c2ncc(COc3ccccc3)cc2C(=O)N(C)c2ccc(Cl)nc21	140 to 141
NC1=CN(Cc2ccc(Cl)cc2Cl)CN=C1	104 to 105
N#Cc1cnc2cc(I)ccc2c1Cl	165 to 167
CCOc1nn(Cc2ccc(OCc3csc(-c4ccccc4)n3)nc2)cc1CCC(=O)O	121 to 122
CC=CCOc1ccc(C)c2c1C(=O)CC2	87.5 to 92
NC(=C[N+](=O)[O-])NC1CCCC1	117 to 124
CN(C)S(=O)(=O)c1ccc2c(C=O)c[nH]c2c1	250 to 252
CCCC(Cc1ccc(OCCN2CCCCCC2)cc1)(C(=O)O)S(=O)(=O)c1ccc(OC)cc1 (centres undefined)	55
CCOC(=O)c1cnn(-c2ccccc2)c1OC	67
Nc1ccnc(SCc2ccccn2)n1	133 to 134
Clc1cnc(Cl)c2cc(Br)ccc12	134 to 135
CC(C)(C)C(=O)c1c[nH]c2ncc(-c3cccc(OCc4ccccc4)c3)nc12	184 to 185
O[C@H](c1ccc(F)cc1)[C@H](Cc1ccc(C(F)(F)F)cc1)NCc1cccc2ccccc12 (racemic)	94 to 95

Compound	melting point [°C]
CCCOc1ccccc1-c1nc2cc(NC)ccc2c(=O)[nH]1	204 to 205
CON1C(C)(C)CC(OCC2CO2)CC1(C)C (centres undefined)	47 to 49
CC(C)(C)OC(=O)NC(C(=O)Nc1n[nH]c(=S)s1)c1ccccc1 (centres undefined)	194 to 195
Cc1cc2c(cc1C#Cc1ccc(C(=O)O)cc1)C(C)(C)CCC2	203 to 206
Fc1cc(C(Cl)(Cl)Cl)c(Cl)c(C(Cl)Cl)c1Cl	74 to 76
CCC1CC(C)(C)Oc2c1cc(C(C)=O)c(O)c2C (centres undefined)	92 to 93
Cc1cc(C)c2c(c1O)C(=O)C(C)(Cc1ccccc1)C2 (centres undefined)	86 to 87
O=C(NCc1ccccn1)Nc1cc(N2CC(COc3ccccc3)CC2=O)ccn1 (centres undefined)	135 to 137
CCOC(=O)C(CC(=O)c1cc(F)ccc1OC)(NC(C)=O)C(=O)OCC	123 to 124
COCOc1ccc(CO[Si](C)(C)C(C)(C)C)c2cccc(C)c12	42 to 43
O=C1NCCc2c(OCCc3ccccc3)cccc21	149 to 150
Cc1ccc(-c2nc3ccc(N(C)C)cn3c2CNC(=O)CC(C)C)cc1	173 to 175
COc1ccc(-c2nc(COCCc3cccc(NS(=O)(=O)C(F)(F)F)c3)cs2)cc1	112 to 113
Nc1cc(OCc2cccc(Cl)c2)c(C(=O)O)cc1Cl	182 to 184
CCOC(=O)N1CCC(c2[nH]nc3c2C(=O)c2c(NC(=O)NN4CCOCC4)cccc2-3)CC1	206 to 207
CCOC(=O)c1[nH]c2ccc(Cl)cc2c1-c1ccccc1	171 to 172
O=C(O)CCCc1cc2nc(Cl)ccc2n1S(=O)(=O)c1cccc(Cl)c1Cl	173 to 174
CCOC(=O)c1cn(CC)c2nc(N3CCN(Cc4ccc(Cl)cc4)CC3)ncc2c1=O	150
CC(=O)OC(=O)c1cc(CCl)ccc1O	119 to 121
CON(C(=N)N)c1nc(C)cc(C)n1	134 to 136
CCCCCC(O)CCCN(CCCCCCC(=O)O)C(N)=O (centres undefined)	75 to 76
CC(C)(c1ccc(OP(=O)(c2ccccc2)c2ccccc2)cc1)c1ccc(OP(=O)(c2ccccc2)c2ccccc2)cc1	71 to 72
CCN(C)C(=O)c1cnn(-c2ccc(Cl)cc2)c1-c1ccc(OC)c(OC)c1	110
CCOC(=O)C1C(c2ccc(OC)cc2)=NCC1c1ccc2c(c1)OCO2 (centres undefined)	80 to 81
O=C(OC1N=C(c2ccccc2)c2ccccc2NC1=O)c1cc2ccccc2[nH]1 (racemic)	271 to 273
CCCCOc1ccccc1C=CC(=O)c1ccc(OC)c(OC)c1OC	129 to 130
